According to patent US20230381142A1, “ANTILEISHMANIAL COMPOUNDS, COMPOSITIONS AND USE THEREOF” (TRUSTEES OF BOSTON UNIVERSITY, priority 2022, published 2023):
In brackets after ≈: the same amount, converted by molar mass.

Assays:
[1] = tested on: L. donovani intracellular amastigotes infecting THP-1 macrophages; experiment: GSK intramacrophage L. donovani assay (LD AMMAC, inMac; Assay Conditions C); assay type: cell-based; conditions: Leishmania donovani, THP-1
Method in brief: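 EC50 values come from counting amastigotes per infected THP-1 macrophage (AMMAC). Parallel read-outs give percentage of infected cells per well (INFCELL) and a macrophage-number toxicity EC50 (MAC).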

[2] = tested on: L. donovani intracellular amastigotes in B10R cells; experiment: UCSD L. donovani infection assay (Assay Conditions D); assay type: cell-based; conditions: Leishmania donovani; for EC50: average of two biological replicates, read-out: L. donovani EC50 (UCSD assay)
Method in brief: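 Compounds, either single-point at 10 μM or 10-point 2-fold series (3 technical, 2 biological replicates), were incubated 72 h at 37° C. with B10R host cells co-seeded with day-7 stationary L. donovani promastigotes (20:1). DAPI-stained nuclei imaging yielded intracellular parasite EC50 and host-cell CC50.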

[3] = Kinetic aqueous solubility by CAD; assay type: physicochemical; conditions: aqueous medium, kinetic from dmso stock, high-throughput CAD
Procedure: Solubility of compounds using ChemiLuminescent Nitrogen Detection (CLND) was measured as described. Solubility of compounds using Charged Aerosol Detection (CAD) was measured as described. Solubility of solid compounds in Fasted Simulated Intestinal Fluid (FaSSIF) was measured as described.

human serum albumin = human serum albumin (Homo sapiens, UniProt P02768); experiment: Human serum albumin (HSA) binding, chromatographic; assay type: in vitro ADME
Procedure: The percentage of compound bound to human serum albumin was measured using a chromatographic method as described. Briefly, each compound was assayed on an immobilized HSA column and gradient retention times measured, with chromatographic peak detection by UV. Each retention time was then converted to a % HSA bound value using a calibration set of compounds with a known % HSA binding.

[4] = UCSD infection assay, host cell cytotoxicity (CC50); assay type: cell-based; conditions: host macrophages infected with L. donovani; cytotoxicity against host macrophages
[5] = Property forecast index (PFI = ChromLogD7.4 + aromatic rings); assay type: physicochemical

Chain of human serum albumin (P02768 25-609): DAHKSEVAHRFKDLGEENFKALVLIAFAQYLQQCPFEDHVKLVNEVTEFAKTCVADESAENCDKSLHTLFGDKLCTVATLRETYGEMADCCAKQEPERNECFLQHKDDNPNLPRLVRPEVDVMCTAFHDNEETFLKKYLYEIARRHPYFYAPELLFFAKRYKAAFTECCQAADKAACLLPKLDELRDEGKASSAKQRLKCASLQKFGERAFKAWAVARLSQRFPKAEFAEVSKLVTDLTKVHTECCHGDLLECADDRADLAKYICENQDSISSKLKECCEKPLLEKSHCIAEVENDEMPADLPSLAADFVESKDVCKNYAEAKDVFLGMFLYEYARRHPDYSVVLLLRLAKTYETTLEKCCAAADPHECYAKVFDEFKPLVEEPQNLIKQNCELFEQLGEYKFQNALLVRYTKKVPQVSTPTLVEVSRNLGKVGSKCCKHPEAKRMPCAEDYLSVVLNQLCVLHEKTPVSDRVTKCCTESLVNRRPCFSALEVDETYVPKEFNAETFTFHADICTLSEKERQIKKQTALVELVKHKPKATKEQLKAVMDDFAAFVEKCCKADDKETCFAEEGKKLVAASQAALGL

| SMILES | IC50 [1] [nM] | IC50 [2] [nM] | EC50 [2] [nM] | solubility [3] [µM] | HSA Binding (human serum albumin) [%] | CC50 at 72 h [4] [nM] | PFI [5] |
| --- | --- | --- | --- | --- | --- | --- | --- |
| COc1ccc(N2C(=O)c3[nH]nc(CC(C)C)c3C2c2ccccc2OC)cc1F (stereo not drawn) [Compound 72, 5-(3-fluoro-4-methoxyphenyl)-3-isobutyl-4-(2-methoxyphenyl)-4,5-dihydropyrrolo[3,4-c]pyrazol-6(1H)-one] | 1300 | 400 | 380 | 43 (≈ 17.6 µg/mL) | 95.9 | 260 | 8.5 |
| COc1ccc(N2C(=O)c3[nH]nc(CC(C)C)c3C2c2ccc(F)cc2C)cc1F (stereo not drawn) [Compound 73, 4-(4-fluoro-2-methylphenyl)-5-(3-fluoro-4-methoxyphenyl)-3-isobutyl-4,5-dihydropyrrolo[3,4-c]pyrazol-6(1H)-one] | 3200 | 200 | 160 | 35 (≈ 14.4 µg/mL) | 96.3 | 10900 | 8.8 |
| CC(C)Cc1n[nH]c2c1C(c1ccccc1Br)N(c1ccc(Br)cc1)C2=O (stereo not drawn) [Compound 74, 4-(2-bromophenyl)-5-(4-bromophenyl)-3-isobutyl-4,5-dihydropyrrolo[3,4-c]pyrazol-6(1H)-one] | 10000 | 400 | 390 | < 1 | 98.0 | 4980 | 10.4 |
| COc1ccccc1C1c2c(CC(C)C)n[nH]c2C(=O)N1c1ccc(Br)cc1 (stereo not drawn) [Compound 75, 5-(4-bromophenyl)-3-isobutyl-4-(2-methoxyphenyl)-4,5-dihydropyrrolo[3,4-c]pyrazol-6(1H)-one] | 500 | 200 | 240 | < 1 | 97.5 | 1140 | 9.6 |
| Cc1cc(F)ccc1C1c2c(CC(C)C)n[nH]c2C(=O)N1c1ccc(Br)cc1 (stereo not drawn) [Compound 76, 5-(4-bromophenyl)-4-(4-fluoro-2-methylphenyl)-3-isobutyl-4,5-dihydropyrrolo[3,4-c]pyrazol-6(1H)-one] | 600 | 100 | 120 | < 1 | 97.7 | 3040 | 9.8 |
| COc1cc(F)ccc1C1c2c(CC(C)C)n[nH]c2C(=O)N1c1ccc(Br)cc1 (stereo not drawn) [Compound 77, 5-(4-bromophenyl)-4-(4-fluoro-2-methoxyphenyl)-3-isobutyl-4,5-dihydropyrrolo[3,4-c]pyrazol-6(1H)-one] | 100 | 100 | 120 | < 1 | 98.5 | 4040 | 9.7 |
| CC(C)Cc1n[nH]c2c1C(c1ccccc1Cl)N(c1ccc(N(C)C)cc1)C2=O (stereo not drawn) [Compound 78, 4-(2-chlorophenyl)-5-(4-(dimethylamino)phenyl)-3-isobutyl-4,5-dihydropyrrolo[3,4-c]pyrazol-6(1H)-one] | 800 | 300 | 260 | 21 (≈ 8.59 µg/mL) | 96.7 | 7320 | 9.4 |
| COc1ccccc1C1c2c(CC(C)C)n[nH]c2C(=O)N1c1ccc(N(C)C)cc1 (stereo not drawn) [Compound 80, 5-(4-(dimethylamino)phenyl)-3-isobutyl-4-(2-methoxyphenyl)-4,5-dihydropyrrolo[3,4-c]pyrazol-6(1H)-one] | 200 | 100 | 70 | 66 (≈ 26.7 µg/mL) | 95.7 | 3450 | 8.6 |
| Cc1cc(F)ccc1C1c2c(CC(C)C)n[nH]c2C(=O)N1c1ccc(N(C)C)cc1 (stereo not drawn) [Compound 81, 5-(4-(dimethylamino)phenyl)-4-(4-fluoro-2-methylphenyl)-3-isobutyl-4,5-dihydropyrrolo[3,4-c]pyrazol-6(1H)-one] | 100 | 100 | 110 | 27 (≈ 11 µg/mL) | 96.5 | 7510 | 9.1 |
